Data: US20060229356A1, “Use of indomethacin and derivatives as broad-spectrum antiviral drugs and corresponding pharmaceutical compositions” (priority 2003, published 2006)
pIC50: −log10 of the molar value. Several values for one entry are separate records, joined by “and”; a condition that tells them apart may be missing. Equal entries are not always repeated.

Assays:
[1] = test system: paramyxovirus (Sendai, SV); test: Sendai virus (SV) replication in 37RC cells, hemagglutination assay; type: cell-based; details: for Virus yield: Table 2, SV; for Reduction of virus production: paramyxovirus, each agent given separately
[2] = test system: influenza A virus (WSN strain); test: Influenza A virus (WSN) replication in A549 cells, hemagglutination assay; type: cell-based; details: for Virus yield: Table 2, WSN; for Decrease of virus production: influenza virus, each agent given separately
rotavirus (SA-11 strain) = test: Rotavirus (SA-11) replication in MA104 cells, hemagglutination assay; type: cell-based; details: MA104, 24 h, read-out: IC50 (50% reduction of the virus titer)
[3] = test system: coronavirus (CCoV, S-378 strain); test: Coronavirus (CCoV) replication in A-72 cells, CPE50% assay; type: cell-based
[4] = test system: Herpes Simplex type 1 virus (HSV-1); test: HSV-1 replication in HEp-2 cells, CPE50% assay; type: cell-based, Herpes Simplex virus type 1
[5] = test system: 37RC cells infected with SV; test: Cytoprotective effect in SV-infected 37RC cells (FIG. 1); type: cell-based, monkey; details: 37RC cells infected with SV for 24 hours, 400 microM INDO
Procedure: (§1) FIGS. 1 and 2 show the cytoprotective effect of INDO. Cells were infected as described in example 1.
FIG. 1A: 37RC cells non infected (control); FIG. 1B: 37RC cells infected with SV for 24 hours non treated (SV); FIG. 1C: 37RC cells infected with SV for 24 hours and treated with 400 microM INDO (SV+INDO).

[6] = test system: A-72 cells infected with CCoV; test: Cytoprotective effect in CCoV-infected A-72 cells (FIG. 2); type: cell-based, canine; details: A-72 cells infected with CCoV for 24 hours, 400 microM INDO
Procedure: as §1
FIG. 2A: A-72 cells non infected (control); FIG. 2B: A-72 cells infected with CCoV for 24 hours non treated (CCoV); FIG. 2C: A-72 cells infected with CCoV for 24 hours and treated with 400 microM INDO (CCoV+INDO).

virion = test: Addition to the virus suspension or during virus adsorption; type: cell-based; details: INDO 5-10 mM, any of the viruses indicated
[7] = test system: transcription factor NF-κB; test: Activation of NF-κB induced by viral infection; type: cell-based; details: at the active antiviral concentrations, data not shown
[8] = test system: transcription factor HSF (Heat Shock Factor); test: Activation of HSF (Heat Shock Factor); type: cell-based; details: at the active antiviral concentrations, data not shown
GRP78/BiP = test: Synthesis of stress protein GRP78/BiP; type: cell-based
poxvirus = details: cited from earlier work
coxsackie virus = details: cited from earlier work
[9] = test system: Vesicular Stomatitis Virus (VSV); details: VSV infection; cited from earlier work
HIV-1 = HIV-1 infection; cited from earlier work
herpesviruses = details: some herpesviruses; cited from earlier work

CCCCC/C=C/C=C1/C(=O)C=C[C@@H]1C/C=C\CCCC(=O)O [15dx-PGJ2, 15deoxy-Δ^12-14-PGJ2]
Virus yield ([1]; 15dx-PGJ2 alone 1 μM): 37 % of control | Reduction of virus production [1]: 63%

COc1ccc2c(c1)c(CC(=O)O)c(C)n2C(=O)c1ccc(Cl)cc1 [INDO, Indomethacin]
pIC50 ([1]; Respirovirus muris, 24 h, read-out: IC50 (50% reduction of the virus titer)): 3.89 | Virus yield ([1]; INDO alone 100 μM): 50 % of control and 60 % of control | Reduction of virus production [1]: 40% | Effect at 48 hours after infection [2]: lost its effect | pIC50 ([2]; Influenza A virus, WSN, A549, 24 h, read-out: IC50 (50% reduction of the virus titer)): 3.40 | Virus yield ([2]; INDO alone 200 μM): 75 % of control | Virus yield ([2]; INDO alone 400 μM): 67 % of control | Decrease of virus production [2]: approximately 30% | pIC50 (rotavirus (SA-11 strain)): > 4.60 | pIC50 ([3]; A-72, 24 h, read-out: IC50 (50% reduction of the virus titer)): > 4.30 | inhibition at 50 µM ([3]; A-72, coronavirus, INDO 50 microM, read-out: Inhibition of virus production as compared to control): > 90% | Virus yield ([4]; Table 2, HSV-1, INDO alone 25 μM): 28.2 % of control and 38.1 % of control | Virus yield ([4]; Table 2, HSV-1, INDO alone 100 μM): 9.7 % of control | Protective effect on cellular damage (cytopathic effect) caused by virus [5]: protected from the destructive cytopathic effect | Protective effect on cellular damage (cytopathic effect) caused by virus [6]: protected from the destructive cytopathic effect | Effect on virus replication when added to the virus suspension or during virus adsorption (virion): no effect | Inhibition of NF-κB activation induced by the viral infection [7]: does not inhibit | Activation of HSF (Heat Shock Factor) [8]: does not activate | Synthesis of endoplasmic reticulum stress protein GRP78/BiP (GRP78/BiP): observed the synthesis | Concentrations non-toxic for the host cell (host cell): 10 to 800 µM | Antiviral effect (literature) (poxvirus): no antiviral effect or to worsen the infection | Antiviral effect (literature) (coxsackie virus): no antiviral effect or to worsen the infection | Antiviral effect (literature) [9]: antiviral effect | Antiviral effect (literature) (HIV-1): antiviral effect | Antiviral effect (literature) (herpesviruses): antiviral effect

CCCCC[C@H](O)C/C=C1/C(=O)C=C[C@@H]1C/C=C\CCCC(=O)O [Δ^12-PGJ2]
Virus yield ([2]; Δ^12-PGJ2 alone 5 μM): 67 % of control | Decrease of virus production [2]: approximately 30%

CCCCC[C@H](O)/C=C/[C@H]1C=CC(=O)[C@@H]1CCCCCCC(=O)O [PGA1]
Virus yield ([4]; Table 2, HSV-1, PGA1 alone 25 μM): 9 % of control

[Cl-].[Cl-].[Zn+2] [ZnCl2]
Virus yield ([1]; ZnCl2 alone 50 μM): 60 % of control | Virus yield ([2]; ZnCl2 alone 50 μM): 67 % of control | Virus yield ([4]; Table 2, HSV-1, ZnCl2 alone 50 μM): 8.3 % of control

NC(=O)c1ncn([C@@H]2O[C@H](CO)[C@@H](O)[C@H]2O)n1 [RIB, ribavirin]
Virus yield ([2]; RIB alone 50 μM): 58 % of control

Nc1nc2c(ncn2COCCO)c(=O)[nH]1 [ACY, acyclovir]
Virus yield ([4]; Table 2, HSV-1, ACY alone 1 μM): 7.7 % of control
